Some test systems named below: HT-29; HCC 2998; UACC-257; HOP-62; KM12; M14; OVCAR-8; OVCAR-4; NCI-H23; SNB-75; MDA-N; SN12C; OVCAR-5; COLO 205; SK-MEL-2; TK-10; T47D; EKVX; CAKI-1.
What all share (experiment): NCI tumour cell line growth inhibition, 48 h

The structures appear in SMILES notation.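 Results reflect a 48-hour exposure of cells in 96-well plates to compound at five concentrations. The concentration for 50% growth inhibition is given as GI50.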 Active and inactive are the calls of the source. Rule as the data show it: active = GI50 up to about 1.1 µM and inactive = higher.

Turning to `O=C(c1c2c(cc3c1CC1(Cc4cc5c(cc4C1)CCCC5)C3)CCCC2)C(Br)Br`, the GI50 in the assay with HT-29 is 20.3 µM (inactive); in the assay on HCC 2998, 21.5 µM (inactive); with UACC-257, 19.9 µM (inactive); in the assay on HOP-62 it was > 51.2 µM (inactive); in the assay on KM12, 22.1 µM (inactive); with M14 it was 4.18 µM (inactive). Also, the GI50 in the assay with OVCAR-8 was 15 µM (inactive); in the assay on OVCAR-4, 12.4 µM (inactive); in the assay on NCI-H23, 14.6 µM (inactive); in the assay on SNB-75, 5.08 µM (inactive); with MDA-N, 14.8 µM (inactive); in the assay with SN12C, 18.6 µM (inactive). The GI50 was 22.9 µM (inactive) in the assay on OVCAR-5; 13.2 µM (inactive) in the assay with COLO 205; 19.2 µM (inactive) in the assay on SK-MEL-2; 17 µM (inactive) in the assay on TK-10; 6.38 µM (inactive) in the assay with T47D; 34.7 µM (inactive) in the assay with EKVX. Moreover, in the assay on CAKI-1, the GI50 is 11.3 µM (inactive).

Turning to `CCCCc1c(OC)cc(O)c2c1C(=O)c1[nH]c(C(=O)O)c(O)c(=O)c1C2=O`, the GI50 is > 100 µM (inactive) in the assay with HT-29; 19.8 µM (inactive) in the assay on HCC 2998; 10.4 µM (inactive) in the assay with UACC-257; 1.57 µM (inactive) in the assay with HOP-62; 29.4 µM (inactive) in the assay with KM12; 4.83 µM (inactive) with M14. The GI50 in the assay with OVCAR-8 is 2.27 µM (inactive); in the assay on OVCAR-4 it was 18.3 µM (inactive); in the assay with NCI-H23 it was 2.81 µM (inactive); with SNB-75 it was 3.26 µM (inactive); in the assay with MDA-N, 17.2 µM (inactive); in the assay on SN12C, 6.08 µM (inactive). Besides, the GI50 with OVCAR-5 was 4.9 µM (inactive); with COLO 205, 22 µM (inactive); in the assay with SK-MEL-2, 1.69 µM (inactive); in the assay on TK-10, 13.9 µM (inactive); in the assay with T47D, 9.4 µM (inactive); in the assay with EKVX it was 2.34 µM (inactive). Further, the GI50 in the assay on CAKI-1 was 13.2 µM (inactive).

Turning to `CCN(CCCl)c1cc(CN(C)C)cc(NC(=O)c2ccc(C(=O)Nc3cc(CN(C)C)cc(N(CC)CCCl)c3)cc2)c1`, the GI50 in the assay with HT-29 was 0.0951 µM (active); with HCC 2998, 0.0762 µM (active); with UACC-257, 0.356 µM (active); in the assay on HOP-62, 0.133 µM (active); in the assay on KM12 it was 0.234 µM (active); with M14 it was 0.291 µM (active). The GI50 in the assay with OVCAR-8 is 0.224 µM (active); in the assay on OVCAR-4, 0.5 µM (active); in the assay on NCI-H23 it was 0.0665 µM (active); with SNB-75 it was 0.114 µM (active); in the assay on MDA-N, 0.154 µM (active); with SN12C, 0.0502 µM (active). In addition, the GI50 was 0.24 µM (active) in the assay on OVCAR-5; 0.147 µM (active) with COLO 205; 0.12 µM (active) in the assay with SK-MEL-2; 0.861 µM (active) with TK-10; 0.134 µM (active) in the assay on T47D; 1.31 µM (inactive) in the assay with EKVX. For the same compound, the GI50 in the assay on CAKI-1 is 0.272 µM (active).

`COC(=O)C1(Cc2ccc(C)cc2)Cc2c(C)cccc2C1=O` (stereo not given): the GI50 in the assay on HT-29 was 8.83 µM (inactive); in the assay with HCC 2998, 16.8 µM (inactive); in the assay on UACC-257 it was 22.1 µM (inactive); with HOP-62, 19.3 µM (inactive); in the assay on KM12, 6.75 µM (inactive); in the assay with M14, 16.6 µM (inactive). Also, the GI50 is 27.7 µM (inactive) in the assay on OVCAR-8; 20.3 µM (inactive) in the assay on OVCAR-4; 35.3 µM (inactive) with NCI-H23; 26.4 µM (inactive) in the assay on SNB-75; 3.27 µM (inactive) in the assay on MDA-N; 18.3 µM (inactive) with SN12C. Also, the GI50 in the assay with OVCAR-5 is 24.6 µM (inactive); in the assay on COLO 205 it was 12.1 µM (inactive); in the assay with SK-MEL-2 it was 12.9 µM (inactive); in the assay on TK-10 it was 26.2 µM (inactive); with T47D it was 18.5 µM (inactive); in the assay with EKVX it was 18.2 µM (inactive). In the assay on CAKI-1, the GI50 was 25.7 µM (inactive).

As to `CCCC(=O)OC[n+]1cccc(-c2c(COC(=O)NC(C)C)c(COC(=O)NC(C)C)c3n2CCC3)c1`, the GI50 was > 68.2 µM (inactive) with HT-29; > 100 µM (inactive) with HCC 2998; > 100 µM (inactive) in the assay on UACC-257; 49.8 µM (inactive) in the assay with HOP-62; > 100 µM (inactive) in the assay with KM12; 50.9 µM (inactive) in the assay on M14. Besides, the GI50 with OVCAR-8 is 55.7 µM (inactive); in the assay on OVCAR-4 it was 58.6 µM (inactive); in the assay on NCI-H23, 34.8 µM (inactive); in the assay with SNB-75 it was 71.3 µM (inactive); in the assay on MDA-N it was > 100 µM (inactive); in the assay with SN12C, 37.8 µM (inactive). In addition, the GI50 in the assay on OVCAR-5 was 97.7 µM (inactive); in the assay with COLO 205, 73.3 µM (inactive); in the assay on SK-MEL-2 it was > 82.6 µM (inactive); with TK-10 it was > 72.4 µM (inactive); with T47D, > 91.8 µM (inactive); with EKVX, > 100 µM (inactive). Moreover, the GI50 in the assay with CAKI-1 was 8.51 µM (inactive).

For the compound `C/C=C/C=C\C1OC(O)([C@H](CC)C(=O)NC/C=C/C=C(\C)[C@H](OC)C(C)C2OC(\C=C/C=C/C=C(\C)C(=O)c3c(O)ccn(C)c3=O)[C@H](O)[C@@H]2O)C(O)C(O)C1(C)C` (stereo not given in full), the GI50 is 55 µM (inactive) in the assay with HT-29; > 100 µM (inactive) in the assay on HCC 2998; > 100 µM (inactive) in the assay on UACC-257; > 100 µM (inactive) with HOP-62; > 100 µM (inactive) in the assay on KM12; > 100 µM (inactive) in the assay on M14. In addition, the GI50 in the assay on OVCAR-8 is 82.8 µM (inactive); with OVCAR-4, > 100 µM (inactive); in the assay with NCI-H23, > 100 µM (inactive); with SNB-75, > 100 µM (inactive); in the assay with MDA-N it was > 100 µM (inactive); in the assay on SN12C, 75.3 µM (inactive). In addition, the GI50 in the assay on OVCAR-5 was > 100 µM (inactive); in the assay on COLO 205, > 100 µM (inactive); with SK-MEL-2, > 100 µM (inactive); in the assay on TK-10, > 100 µM (inactive); with T47D, 40.2 µM (inactive); in the assay on EKVX, > 100 µM (inactive). Besides, the GI50 in the assay with CAKI-1 was > 100 µM (inactive).

With `NC(Cc1ccc(S(=O)(=O)O)cc1)C(=O)NC(Cc1ccc(S(=O)(=O)O)cc1)C(=O)NC(Cc1ccc(S(=O)(=O)O)cc1)C(=O)O` (stereo not given), the GI50 in the assay with HT-29, in the assay on HCC 2998, in the assay on UACC-257, in the assay with HOP-62, in the assay on KM12 and with M14 was > 100 µM (inactive) in each case. For the same compound, the GI50 in the assay on OVCAR-8, with OVCAR-4, in the assay on NCI-H23, with SNB-75, in the assay with MDA-N and in the assay on SN12C was > 100 µM (inactive) each time. For the same compound, the GI50 in the assay with OVCAR-5, with COLO 205, in the assay with SK-MEL-2, in the assay on TK-10, with T47D and in the assay with EKVX was > 100 µM (inactive) in each case. For the same compound, the GI50 in the assay on CAKI-1 was > 100 µM (inactive).

`CC(C)NC(=O)OCCN=C1c2ccccc2CCc2ccccc21`: the GI50 in the assay on HT-29 was 21.4 µM (inactive); with HCC 2998, 18.4 µM (inactive); in the assay with UACC-257 it was 22.9 µM (inactive); in the assay on HOP-62, 21 µM (inactive); with KM12 it was 37.2 µM (inactive); in the assay with M14, 20.3 µM (inactive). The GI50 with OVCAR-8 is 27 µM (inactive); in the assay with OVCAR-4, 12.2 µM (inactive); in the assay with NCI-H23, 54.3 µM (inactive); with SNB-75, 24.3 µM (inactive); in the assay with MDA-N it was 18.7 µM (inactive); in the assay with SN12C it was 18.8 µM (inactive). Further, the GI50 was 29.4 µM (inactive) with OVCAR-5; 19.1 µM (inactive) with COLO 205; 16.4 µM (inactive) in the assay on SK-MEL-2; 26.1 µM (inactive) in the assay on TK-10; 21 µM (inactive) in the assay on T47D; 23.8 µM (inactive) in the assay on EKVX. The GI50 in the assay on CAKI-1 is 24.7 µM (inactive).

As to `O=C1CC(NCCCNC2CC(=O)c3c(Br)sc(Br)c32)c2c(Br)sc(Br)c21` (stereo not given), the GI50 in the assay on HT-29 was 2.28 µM (inactive); in the assay on HCC 2998 it was 1.99 µM (inactive); with UACC-257 it was 2.92 µM (inactive); in the assay on HOP-62, 2.84 µM (inactive); with KM12 it was 1.49 µM (inactive); in the assay on M14, 2 µM (inactive). Moreover, the GI50 in the assay with OVCAR-8 is 1.66 µM (inactive); with OVCAR-4 it was 2.93 µM (inactive); with NCI-H23, 1.83 µM (inactive); in the assay with SNB-75, 2.48 µM (inactive); with MDA-N, 1.79 µM (inactive); in the assay on SN12C it was 1.99 µM (inactive). In addition, the GI50 in the assay on OVCAR-5 is 2.21 µM (inactive); in the assay on COLO 205 it was 2.22 µM (inactive); in the assay with SK-MEL-2 it was 1.87 µM (inactive); in the assay with TK-10 it was 2.06 µM (inactive); with T47D, 2.11 µM (inactive); with EKVX, 2.22 µM (inactive). Besides, the GI50 in the assay with CAKI-1 was 2.03 µM (inactive).

As to `CC1=C(C)C(=O)C(C2=CC(=O)C=CC2=O)=C(C2=CC(=O)C=CC2=O)C1=O`, the GI50 is > 72.6 µM (inactive) in the assay on HT-29; > 100 µM (inactive) in the assay with HCC 2998; > 67.1 µM (inactive) with UACC-257; > 100 µM (inactive) in the assay on HOP-62; 64.4 µM (inactive) with KM12; > 76.9 µM (inactive) with M14. For the same compound, the GI50 in the assay on OVCAR-8 was 36.6 µM (inactive); in the assay on OVCAR-4 it was 20.6 µM (inactive); with NCI-H23, > 100 µM (inactive); in the assay on SNB-75, > 100 µM (inactive); in the assay with MDA-N, 26.9 µM (inactive); with SN12C, 31 µM (inactive). Further, the GI50 in the assay on OVCAR-5 is > 58.9 µM (inactive); in the assay with COLO 205, 56 µM (inactive); with SK-MEL-2, > 100 µM (inactive); with TK-10, > 100 µM (inactive); in the assay on T47D it was 26.4 µM (inactive); in the assay on EKVX, > 54.1 µM (inactive). Also, in the assay with CAKI-1, the GI50 was 25.2 µM (inactive).

Values taken from ChEMBL document CHEMBL1201862, “PubChem BioAssay data set” (2004).
